Measurements: the NIST ThermoML archive (doi:10.1021/je200721d)

Assay: xn = mol fraction of the nth substance listed
Conditions: Liquid, Vibrating tube method

CCCCCCCCCC [decane] + CCCCCC
Conditions | mass density [kg/m3]
362.91 K, 7000 kPa, x2 = 0.0456 | 681.43
362.91 K, 8000 kPa, x2 = 0.0456 | 682.51
362.91 K, 9000 kPa, x2 = 0.0456 | 683.59
362.91 K, 10000 kPa, x2 = 0.0456 | 684.65
362.91 K, 11000 kPa, x2 = 0.0456 | 685.7
362.91 K, 12000 kPa, x2 = 0.0456 | 686.71
362.91 K, 13000 kPa, x2 = 0.0456 | 687.73
362.91 K, 14000 kPa, x2 = 0.0456 | 688.73
362.91 K, 15000 kPa, x2 = 0.0456 | 689.71
362.91 K, 16000 kPa, x2 = 0.0456 | 690.69
362.91 K, 17000 kPa, x2 = 0.0456 | 691.65
362.91 K, 18000 kPa, x2 = 0.0456 | 692.61
362.91 K, 19000 kPa, x2 = 0.0456 | 693.55
362.91 K, 20000 kPa, x2 = 0.0456 | 694.48
362.91 K, 21000 kPa, x2 = 0.0456 | 695.43
362.91 K, 22000 kPa, x2 = 0.0456 | 696.32
362.91 K, 23000 kPa, x2 = 0.0456 | 697.22
362.91 K, 24000 kPa, x2 = 0.0456 | 698.09
362.91 K, 25000 kPa, x2 = 0.0456 | 698.96
362.93 K, 1000 kPa, x2 = 0.7524 | 623.36
362.93 K, 2000 kPa, x2 = 0.7524 | 624.97
362.93 K, 3000 kPa, x2 = 0.7524 | 626.55
362.93 K, 4000 kPa, x2 = 0.7524 | 628.12
362.93 K, 5000 kPa, x2 = 0.7524 | 629.63
362.93 K, 6000 kPa, x2 = 0.7524 | 631.14
362.93 K, 7000 kPa, x2 = 0.7524 | 632.58
362.93 K, 8000 kPa, x2 = 0.7524 | 634.03
362.93 K, 9000 kPa, x2 = 0.7524 | 635.42
362.93 K, 10000 kPa, x2 = 0.7524 | 636.78
362.93 K, 11000 kPa, x2 = 0.7524 | 638.11
362.93 K, 12000 kPa, x2 = 0.7524 | 639.39
362.93 K, 13000 kPa, x2 = 0.7524 | 640.69
362.93 K, 14000 kPa, x2 = 0.7524 | 641.96
362.93 K, 15000 kPa, x2 = 0.7524 | 643.24
362.93 K, 16000 kPa, x2 = 0.7524 | 644.37
362.93 K, 17000 kPa, x2 = 0.7524 | 645.56
362.93 K, 18000 kPa, x2 = 0.7524 | 646.73
362.93 K, 19000 kPa, x2 = 0.7524 | 647.87
362.93 K, 20000 kPa, x2 = 0.7524 | 649
362.93 K, 21000 kPa, x2 = 0.7524 | 650.11
362.93 K, 22000 kPa, x2 = 0.7524 | 651.2
362.93 K, 23000 kPa, x2 = 0.7524 | 652.27
362.93 K, 24000 kPa, x2 = 0.7524 | 653.3
362.93 K, 25000 kPa, x2 = 0.7524 | 654.33
362.94 K, 1000 kPa, x2 = 0.4968 | 646.01
362.94 K, 2000 kPa, x2 = 0.4968 | 647.42
362.94 K, 3000 kPa, x2 = 0.4968 | 648.86
362.94 K, 4000 kPa, x2 = 0.4968 | 650.21
362.94 K, 5000 kPa, x2 = 0.4968 | 651.6
362.94 K, 6000 kPa, x2 = 0.4968 | 652.91
362.94 K, 7000 kPa, x2 = 0.4968 | 654.2
362.94 K, 8000 kPa, x2 = 0.4968 | 655.48
362.94 K, 9000 kPa, x2 = 0.4968 | 656.71
362.94 K, 10000 kPa, x2 = 0.4968 | 657.94
362.94 K, 11000 kPa, x2 = 0.4968 | 659.13
362.94 K, 12000 kPa, x2 = 0.4968 | 660.32
362.94 K, 13000 kPa, x2 = 0.4968 | 661.45
362.94 K, 14000 kPa, x2 = 0.4968 | 662.6
362.94 K, 15000 kPa, x2 = 0.4968 | 663.75
362.94 K, 16000 kPa, x2 = 0.4968 | 664.81
362.94 K, 17000 kPa, x2 = 0.4968 | 665.88
362.94 K, 18000 kPa, x2 = 0.4968 | 666.95
362.94 K, 19000 kPa, x2 = 0.4968 | 667.98
362.94 K, 20000 kPa, x2 = 0.4968 | 669.01
362.94 K, 21000 kPa, x2 = 0.4968 | 670.03
362.94 K, 22000 kPa, x2 = 0.4968 | 671.04
362.94 K, 23000 kPa, x2 = 0.4968 | 672.03
362.94 K, 24000 kPa, x2 = 0.4968 | 673
362.94 K, 25000 kPa, x2 = 0.4968 | 673.96
362.95 K, 1000 kPa, x2 = 0.2185 | 664.98
362.95 K, 2000 kPa, x2 = 0.2185 | 666.23
362.95 K, 3000 kPa, x2 = 0.2185 | 667.46
362.95 K, 4000 kPa, x2 = 0.2185 | 668.71
362.95 K, 5000 kPa, x2 = 0.2185 | 669.93
362.95 K, 6000 kPa, x2 = 0.2185 | 671.12
362.95 K, 7000 kPa, x2 = 0.2185 | 672.27
362.95 K, 8000 kPa, x2 = 0.2185 | 673.43
362.95 K, 9000 kPa, x2 = 0.2185 | 674.54
362.95 K, 10000 kPa, x2 = 0.2185 | 675.66
362.95 K, 11000 kPa, x2 = 0.2185 | 676.75
362.95 K, 12000 kPa, x2 = 0.2185 | 677.81
362.95 K, 13000 kPa, x2 = 0.2185 | 678.85
362.95 K, 14000 kPa, x2 = 0.2185 | 679.9
362.95 K, 15000 kPa, x2 = 0.2185 | 680.96
362.95 K, 16000 kPa, x2 = 0.2185 | 681.94
362.95 K, 17000 kPa, x2 = 0.2185 | 682.95
362.95 K, 18000 kPa, x2 = 0.2185 | 683.9
362.95 K, 19000 kPa, x2 = 0.2185 | 684.89
362.95 K, 20000 kPa, x2 = 0.2185 | 685.85
362.95 K, 21000 kPa, x2 = 0.2185 | 686.79
362.95 K, 22000 kPa, x2 = 0.2185 | 687.72
362.95 K, 23000 kPa, x2 = 0.2185 | 688.63
362.95 K, 24000 kPa, x2 = 0.2185 | 689.54
362.95 K, 25000 kPa, x2 = 0.2185 | 690.43
